According to US12629406B2, “Alterations in endothelin receptors following hemorrhage and resuscitation by centhaquin” (MIDWESTERN UNIVERSITY, priority 2018, dated 2026):

Experiments:
[1] = in vivo; cited from earlier work
[2] = Renal blood perfusion in hemorrhaged rats with norepinephrine infusion to maintain MAP at 70 mmHg; format: in vivo, rat
Experimental: Experimental design. To determine the resuscitative effect of centhaquin on cardiovascular system in hemorrhagic shock, rats were randomly divided into three groups: Hemorrhaged rats were administered 100% shed blood volume of either normal saline (vehicle); 100% shed blood volume of either normal saline plus centhaquin (0.01 mg/kg) or 100% shed blood volume of either normal saline plus centhaquin (0.10 mg/kg) during the first 10 minutes of resuscitation. Additional experiments were also carried out where the amount of norepinephrine (a very commonly used vasopressor during resuscitation) required to maintain MAP at 70 mmHg in normal saline (NS) or centhaquin (0.01 mg/kg) treated rats (volume equal to blood loss) was determined.
The femoral vein was cannulated for drug administration, femoral artery was cannulated for measuring mean arterial pressure (MAP) and a laser Doppler flow probe was placed in the renal medulla to measure blood perfusion. Induction of hemorrhagic shock was initiated by withdrawing blood to maintain the MAP at 35 mmHg for 30 minutes. Norepinephrine infusion was carried out to bring and maintain the MAP to 70 mmHg. The effect of centhaquin on cardiovascular functions were measured before the induction of shock, 30 minutes after shock (hemorrhage) and 15, 30, 45, 60, 75 and 90 minutes after resuscitation. […]

[3] = 24 human subjects; cited from earlier work
[4] = test system: TNF-α; experiment: Plasma TNF-α in hemorrhaged rats (ELISA); format: in vivo, rat; settings: p<0.01
Experimental: Induction of Hemorrhagic Shock. Hemorrhage was induced by withdrawing blood from the femoral artery at a rate of approximately 0.5 to 1 mL/min until a MAP of 35 mmHg was reached. This MAP was maintained for 30 min by further withdrawal of blood, if necessary. The hemorrhagic shock model used in the present study is a well-established rodent model of manageable pressure hemorrhage (Buehler et al. 2000; Gulati et al. 1997a; Gulati and Sen 1998). The volume of blood loss was about approximately 8.0 ml in each rat and was similar in various groups, amounting to approximately 40% of the total blood. Measured hematocrit levels were similar in various groups. The duration of blood withdrawal was approximately 15 minutes.
Experimental design. […] The blood samples, for biochemical estimations, were collected at 30 minutes of resuscitation and cardiovascular parameters were monitored till 60 minutes after which the animal was sacrificed. […]

[5] = Renal medullary blood perfusion (laser Doppler) in hemorrhaged rats; format: in vivo, rat
Experimental: Determination of cardiovascular response. The animals were anesthetized with urethane dissolved in isotonic saline. Urethane was administered in a dose of 1.5 g per kg body weight via intraperitoneal injection. Urethane was selected as an anesthetic agent, because it produces long lasting (8-10 hours) anesthesia with minimal cardiovascular and respiratory system depression. It produces a level of surgical anesthesia characterized by preservation of cardiovascular reflexes (Maggi and Meli 1986). Briefly, anaesthetized rats were immobilized on a surgical board equipped with controlled heating pad. […] MAP and HR were measured by cannulating the left femoral artery with pressure catheter SPR-320 (Millar Instruments), connected to the ML221 bridge amplifier (AD Instruments) through AEC-10C connector and the signals were acquired (1000 S^−1) using PowerLab 16/30 data acquisition system (Gulati et al. 2012; Pacher et al. 2008). […]
Induction of Hemorrhagic Shock. […] Measured hematocrit levels were similar in various groups. […]
Experimental design. […] Additional experiments were also carried out where the amount of norepinephrine (a very commonly used vasopressor during resuscitation) required to maintain MAP at 70 mmHg in normal saline (NS) or centhaquin (0.01 mg/kg) treated rats (volume equal to blood loss) was determined. […]

For `Cc1cccc(N2CCN(CCc3ccc4ccccc4n3)CC2)c1` [centhaquin, 2-[2-(4-(3-methyphenyl)-1-piperazinyl)]ethyl-quinoline], the half-life [1] is listed as “about one”, the volume of distribution [1] is listed as “high” and the “renal blood perfusion compared to vehicle control following resuscitation” value ([2]; hemorrhaged female rats, till the end of experiment) is listed as “improved”. For the same compound, the “renal blood perfusion compared to vehicle control following resuscitation” value ([2]; hemorrhaged male rats) was “improved”, the safety and tolerability [3] was “safe and was well tolerated” and the “plasma TNF-α level compared to hypertonic saline alone” value [4] was “further increased”. For the same compound, the “renal blood perfusion compared to equal volume of saline” value ([5]; hemorrhaged female rats) was “significantly improved” and the “renal blood perfusion compared to equal volume of saline” value ([5]; hemorrhaged male rats, low doses of centhaquin) was “significantly improved”.
